Data published in patent US8288374B2, “Medicinal composition containing benzo[a]phenoxazine compound as the active ingredient for prevention or treatment of protozoal disease” (Hoshi University, priority 2008, dated 2012).
≈ marks a conversion by molar mass, not a printed value. Read-outs that look alike come from different tables or passages of the source.

Assays:
Rat L6 cells = assay: Growth inhibition test of rat L6 cells; type: cell-based
Description: Rat derived-L6 cells (rat skeletal myoblast cell) were used. A medium, RPMI1640 medium was supplemented so that L-glutamin (200 mM) is 1%, and fetal bovine serum 10%, and the medium was cultured under CO2 concentration 5%, at 37° C.
The compounds of the present invention and the control drugs to be used in the test were dissolved in DMSO, to make a test solution of a predetermined concentration.
Pre-culture was conducted and medium containing cells which have entered the logarithmic growth phase was taken to wells of a 96-well culture plate. Then, a test solution containing drug of a predetermined concentration or a drug-free DMSO was added. Test solutions were taken by duplicates.
Culture plate was cultured for 72 hours in an incubator, to test the growth inhibition activity. Test was conducted as follows. 10 μL of Alamar Blue aqueous solution was added to each well, and the resultant was further cultured for 2 hours. Next, the culture plate was placed on a fluorescent micro-plate reader (Spectramax Gemeni XS; US Molecular Device), radiated at an excited wavelength of 536 nm. Fluorescent intensity was measured at 588 nm, and residual rate of L6 cells of the test solution added group, and that of the control was calculated.
Growth inhibition rate (%)={(C−A)/(B−A)}×100 • A: Primary cell count • B: cell count of control, 3 days after • C: cell count of wells added with a sample, 3 days after 4. Determination of Drug Efficacy Against Chloroquine Resistant-Plasmodium

[1] = tested on: Plasmodium berghei NK65 strain; assay: Cure test by oral administration to mice infected with malaria; type: in vivo; settings: for inhibition in vivo at 100 mg/kg: Plasmodium berghei, infected ICR mice, suppression vs control; for inhibition in vivo at 100 mg/kg / Days of survival: oral, 1 dose, 100 mg/kg; for Days of survival: mean days to death minus that of control mice; for Effectiveness in the in vivo malaria test, in words: oral administration to mice infected with rodent malaria
Description: In this experiment, rodent malaria parasites (the Plasmodium berghei NK65 strain) were used.
The infected blood to be used was subcultured in ICR female SPF mice infected by intraperitoneal or tail vein administration at 4 to 6 weeks old (20 to 26 g). […] Thereafter, based on the number of red cells (cells/ml) and the rate of infection by the protozoans, the blood was diluted with phys'iological saline such that a density of […] malaria parasites/1 ml dose was attained. This was used for infection of uninfected mice (ICR female mice, 5 weeks old) in an amount of 0.2 ml/20 g body weight, through the tail vein (Day-0). The compound used in the test was dissolved in 10% DMSO solution (a mixture of 1 ml of DMSO and 9 ml of 5% glucose solution).
Each group contained 4 mice, and the compound was orally administered to the mice 24 hours after their infection with malaria (Day-1), in an amount calculated such that 100 mg of the compound was administered per 1 kg of the body weight of a mouse. On the other hand, in terms of cases in which the amount was calculated such that 30 mg of the compound was administered per 1 kg of the body weight of a mouse, the oral administration was carried out a total of three times, that is, 24 hours (Day-1), 48 hours (Day-2) and 72 hours (Day-3) after the infection of malaria.
Blood was collected from the tails of each mouse 96 hours (Day-4) and 144 hours (Day-6) after the infection with malaria, and thin blood films were prepared. Under the microscope, the numbers of infection of malaria parasites in the group to which the compound was administered and the control group (to which the compound was not administered) were measured, and the rates of infection with malaria parasites (Parasitemia) were calculated.
From the rate of infection with malaria parasites calculated as above, the cure rate (Suppression) in the case of administration of the drug was calculated according to the following equation. Cure rate: Suppression (%)=(B−A)/B×100
A: Rate of infection with the protozoans in a mouse to which the present test compound was administered
B: Rate of infection with the parasites in a control mouse (to which the compound was not administered) Days of survival: MSD (day)=C−D
C: the average number of days from the date of infection with malaria to the date of death in the mice to which the present test compound was administered
D: The average number of days from the date of infection with malaria to the date of death in the 4 individuals of control mice (to which the compound was not administered)
Further, by observation of changes in the body weight, hair glossiness and the like of each mouse, side effects such as acute toxicity due to administration of the compound were evaluated.

[2] = tested on: Trypanosoma cruzi (Tulahuen C2C4 strain); assay: American trypanosome protozoa growth inhibition screening test; type: cell-based
Description: In the present experiment, amastigote and trypomastigote infected with rat L6 cells of protozoa of Trypanosoma cruzi (Tulahuen C2C4 starin) were used. As medium used in the test, RPMI 1640 medium containing L6 cells was supplemented so that L-glutamine (200 mM) become 1%, fetal bovine serum becomes 10%, which was cultured under CO2 concentration 5%, at 37° C.
The compounds of the present invention to be used in the present test and the positive control drug (benznidazole) were dissolved in DMSO to make a test solution of a predetermined concentration.
A medium containing 5×10^3 protozoa was added to wells of a 96-well culture plate, and pre-cultured for 48 hours. After replacing the medium, test solution containing drug of a predetermined concentration or a drug-free DMSO was added. Test solutions were taken by duplicates.
After culturing the culture plate in an incubator for 96 hours, growth inhibition activity was tested. Test was conducted as follows. 50 μL of CPRG/Nonidet was added to each well, and allowed to rest for 2 to 6 hours. Next, the culture plate was placed on a fluorescent micro-plate reader. The absorbance was measured at 540 nm, and the trypanosome infection rate of the test solution added group and control group were calculated.
Growth inhibition rate (%)={1−(b−a)/(c−a)}×100 • a: early infection rate • b: infection rate when test solution was added • c: infection rate of the control

[3] = 96 h, read-out: Cure rate (%) Day-4
[4] = 144 h, read-out: Cure rate (%) Day-6
[5] = Table 2, unit inferred, 72 hours, read-out: Cytoxicity L6
[6] = Table 6, unit inferred, read-out: Trypanosoma cruzi

SMILES	EC50 (Rat L6 cells; Table 1, 72 hours, Alamar Blue, read-out: 50% Growth inhibition concentration Cytoxicity L6) [µg/mL]	inhibition in vivo at 100 mg/kg [1, 3] [%]	inhibition in vivo at 100 mg/kg [1, 4] [%]	Days of survival [1] [days]	EC50 ([2]; Trypanosoma cruzi, Table 5, in rat L6 cells, 96 hours, CPRG/Nonidet, read-out: 50% Growth inhibition concentration Trypanosoma cruzi) [µg/mL]	EC50 (Rat L6 cells; [5]) [µg/mL]	Effectiveness in the in vivo malaria test, in words [1]	EC50 [2, 6] [µg/mL]
CCN(CC)c1ccc2nc3c4ccccc4c(=Nc4ccc5ccccc5n4)cc-3oc2c1 [Compound 1H, N,N-Diethyl-5-(quinolin-2-ylimino)-5H-benzo[a]phenoxazin-9-amine]	30.1 (≈ 67.8 µM)	81	71	4.3	3.31 (≈ 7.45 µM)	–	–	–
CCN(CCNS(C)(=O)=O)c1cc(C)c2nc3c4ccccc4c(=Nc4ccncc4)cc-3oc2c1 [Compound 1R, N-Ethyl-N-(2-methansulfonamidylethyl)-11-methyl-5-(pyridine-4-ylimino)-5H-benzo[a]phenoxazin-9-amine]	–	100	95.7	15.7	–	7.97 (≈ 15.9 µM)	excellent cure effects	2.01 (≈ 4.01 µM)
CCN(CCNS(C)(=O)=O)c1cc(C)c2nc3c4ccccc4c(=Nc4ccccn4)cc-3oc2c1 [Compound 1S, N-Ethyl-N-(2-methansulfonamidylethyl)-11-methyl-5-(pyridine-2-ylimino)-5H-benzo[a]phenoxazin-9-amine]	–	100	100	11.3	–	0.307 (≈ 0.612 µM)	excellent cure effects	0.376 (≈ 0.75 µM)
